Results from patent US6156790A, “C-10 carbon-substituted artemisinin-like trioxane compounds having antimalarial, antiproliferative and antitumor activities” (priority 1997, dated 2000).

Columns and labels:
[1] = system: K-562; assay: cells; format: cell-based; settings: Homo sapiens, K562, K-562; for GI50: read-out: Log10 GI50 (converted)
[2] = system: COLO 205; assay: NCI 60 cell line screen (SRB), colon cancer; format: cell-based; settings: Homo sapiens; for CC50: read-out: Log10 LC50 (converted); for IC (TGI): read-out: Log10 TGI (converted)
[3] = system: MALME-3M; assay: cells; format: cell-based; settings: Homo sapiens; for IC (TGI): read-out: Log10 TGI (converted)
[4] = system: UACC-257; assay: cells; format: cell-based; settings: Homo sapiens
[5] = system: UACC-62; assay: cells; format: cell-based; settings: Homo sapiens; for CC50: read-out: Log10 LC50 (converted)
[6] = system: OVCAR-5; assay: NCI 60 cell line screen (SRB), ovarian cancer; format: cell-based; settings: Homo sapiens; for CC50: read-out: Log10 LC50 (converted); for IC (TGI): read-out: Log10 TGI (converted)
[7] = system: SN12C; assay: cells; format: cell-based; settings: Homo sapiens; for GI50: read-out: Log10 GI50 (converted); for CC50: read-out: Log10 LC50 (converted)
[8] = system: HS 578T; assay: cells; format: cell-based; settings: Homo sapiens; for CC50: read-out: Log10 LC50 (converted); for IC (TGI): read-out: Log10 TGI (converted)
[9] = system: chloroquine-sensitive P. falciparum (NF54); assay: In vitro antimalarial activity ([3H]hypoxanthine incorporation); format: cell-based
Method: Activity was determined by measuring the incorporation of [^3 H]hypoxanthine, by the methods of Desjardins and Milhouse, with the following modofications, see […].; Haynes, […]. Antimicrob. Agents Chemother., 16:710 (1979); Milhous, W. K.; Weatherly, […].; Antimicrob. Agents Chemother., 27: 525 (1985). […] Parasitemia was maintained at 0.05-3% and doubling time at approximately 15 hours by twice weekly change of medium and replenishment with fresh erythrocytes. […] Sigma-Aldrich #27,043-1). DMSO solutions were diluted 500-fold in medium, serially diluted in 0.2% DMSO in medium (to maintain constant solvent concentration), then 100 μL aliquots were pipetted into microtiter plate wells (Costar 3595). […] Plates included at least 8 wells of no drug controls (4 with and 4 without DMSO) and 4 wells of uninfected erythrocytes. […] Cells were harvested (Brandel MB-48R) onto GF-C glass filters (Brandel). The filters were washed five times with 3 mL water per sample spot, dried under a heat lamp, and counted (Beckman Model LS-6500) in scintillation cocktail (ICN Cytoscint). Decays per minute (dpm) values were downloaded and analyzed (Power MFacintosh 7200/90; Microsoft Excel 5.0), to yield the mean and standard deviation at each drug concentration.

[10] = system: 60 cell line panel; settings: cell line panels of 60 lines; cited from earlier work
[11] = system: P. berghei; settings: P. berghei-infected mice; cited from earlier work
[12] = system: P388 leukemia; settings: NCI Report on NSC 369397; cited from earlier work
[13] = system: P. falciparum; settings: two Hanian strains; cited from earlier work
[14] = system: CCRF-CEM; assay: NCI 60 cell line screen (SRB), leukemia; format: cell-based; settings: Homo sapiens; for IC (TGI): read-out: Log10 TGI (converted)
[15] = system: NCI-H522; assay: cells; format: cell-based; settings: Homo sapiens; for IC (TGI): read-out: Log10 TGI (converted)
[16] = system: HCC-2998; assay: NCI 60 cell line screen (SRB), colon cancer; format: cell-based; settings: Homo sapiens
[17] = system: LOX IMVI; assay: cells; format: cell-based; settings: Homo sapiens; for CC50: read-out: Log10 LC50 (converted); for IC (TGI): read-out: Log10 TGI (converted)
[18] = system: SK-MEL-5; assay: NCI 60 cell line screen (SRB), melanoma; format: cell-based; settings: Homo sapiens
[19] = system: OVCAR-3; assay: NCI 60 cell line screen (SRB), ovarian cancer; format: cell-based; settings: Homo sapiens; for GI50: read-out: Log10 GI50 (converted)
[20] = system: 786-0; assay: cells; format: cell-based; settings: Homo sapiens; for IC (TGI): read-out: Log10 TGI (converted)
[21] = system: MCF7/ADR-RES; assay: cells; format: cell-based; settings: Homo sapiens; for GI50: read-out: Log10 GI50 (converted)
[22] = system: MDA-MB-435; assay: cells; format: cell-based; settings: Homo sapiens; for IC (TGI): read-out: Log10 TGI (converted)
[23] = system: CAKI-1; assay: NCI 60 cell line screen (SRB), renal cancer; settings: Homo sapiens; for CC50: CAKI-1, read-out: Log10 LC50 (converted)
[24] = system: SK-OV-3; assay: NCI 60 cell line screen (SRB), ovarian cancer; format: cell-based; settings: Homo sapiens
[25] = system: murine keratinocyte cell line PE; assay: growth inhibition of PE cells (MTT assay); format: cell-based; settings: 100 nanomolar
Method: To determine the inhibitory effect of the compositions of the present invention on cell proliferation, screening assays were performed on a murine keratinocyte cell line PE. Cell line PE was chosen for its particular sensitivity to the induction of ornithine decarboxylase (ODC) activity by the extensively characterized tumor promoter TPA. […] PE cell culture medium consisted of Eagle's minimal essential medium without calcium chloride (Whittaker Bioproducts, Walkersville, Mass.) supplemented with 8% chelexed fetal calf serum and 1% antibiotic-antimycotic (Gibco BRL) and the addition of CaCl2 to 0.05 mM Ca^++.
Growth Inhibition. Growth curves, shown in FIGS. 1 and 2, for PE cells treated with calcitriol and the C-10 carbon-substituted dimers 21, 22, 26, 27, and 28 generated by assay for the reduction of the tetrazolium-based compound MTT, see Charmichael, et al., Cancer Res., 47:936-942 (1987). […] PE cells were seeded at a density of 5,000 cells/well in 50 μL of medium into 96-well microtiter plates. Twelve hours later, the medium was removed, and cells were treated with 100 μL of fresh medium into which the appropriate amount of calcitrol or analog dissolved in dimethyl sulfoxide (DMSO) had been added, with the concentration of DMSO held constant at 0.1%. […] At 24-hour intervals following the initial treatment of the cells with compounds, 0.1 mg (50 μL of a 2 mg/mL solution) of MTT was added to each well. After 4 hours, the MTT was removed and DMSO added to dissolve the blue formazan dye. Using a microtiter plate reader, the A505 was then determined and cell number calculated from blank-subtracted absorbance values.

[26] = read-out: Log10 LC50 (converted)
[27] = read-out: Log10 TGI (converted)
[28] = read-out: Log10 GI50 (converted)

Row | Compound | GI50 [1] [µM] | CC50 [2] [µM] | IC (TGI) [2] [µM] | IC (TGI) [3] [µM] | CC50 [5] [µM] | CC50 [6] [µM] | IC (TGI) [6] [µM] | GI50 [7] [µM] | CC50 [7] [µM] | CC50 [8] [µM] | IC (TGI) [8] [µM] | IC (TGI) [14] [µM] | IC (TGI) [15] [µM] | CC50 [17] [µM] | IC (TGI) [17] [µM] | GI50 [19] [µM] | IC (TGI) [20] [µM] | GI50 [21] [µM] | IC (TGI) [22] [µM] | CC50 [23] [µM] | further results
1 | C[C@@H]1CC[C@H]2[C@@H](C)C(=O)O[C@@H]3O[C@@]4(C)CC[C@@H]1[C@]32OO4 [Artemisinin] | 46.8 | > 100 | > 100 | 87.1 | > 100 | > 100 | > 100 | 61.7 | > 100 | > 100 | > 100 | – | – | – | – | – | – | – | – | – | CC50 [1, 26]: > 100 µM; CC50 [3, 26]: > 100 µM; CC50 [4, 26]: > 100 µM; IC50 ([9]; Plasmodium falciparum, NF54): 0.01 µM; anticancer activity [10]: very little anticancer activity; SD90 (parasitemia 90 percent suppressed) [11]: 6.20 mg/kg; activity against P388 leukemia [12]: inactive; potency in vitro compared with chloroquine [13]: comparable to that of chloroquine
2 | C[C@H]1[C@@H](F)O[C@@H]2O[C@@]3(C)CC[C@H]4[C@H](C)CC[C@@H]1[C@@]24OO3 [Compound VI, 10β-Fluorodeoxoartemisinin] | 0.316 | – | – | – | – | – | – | – | – | – | – | 53.7 | 16.6 | 31.6 | 275 | 2.88 | 14.8 | 3.55 | 7.24 | 47.9 | GI50 ([14]; CCRP-CEM, read-out: Log10 GI50 (converted)): 0.562 µM; IC (TGI) [1, 27]: 12.6 µM; GI50 [15, 28]: 0.851 µM; CC50 [15, 26]: 64.6 µM; GI50 [16, 28]: 14.5 µM; IC (TGI) [16, 27]: 12.9 µM; GI50 [17, 28]: 0.355 µM; CC50 [18, 26]: 61.7 µM; IC (TGI) [18, 27]: 13.5 µM; GI50 [20, 28]: 1.55 µM; GI50 [22, 28]: 0.692 µM; CC50 [22, 26]: 34.7 µM; GI50 ([23]; CAKI-1, read-out: Log10 GI50 (converted)): 724 µM
3 | C[C@H]1[C@@H](CC(=O)c2ccc(C(=O)C[C@H]3O[C@@H]4O[C@@]5(C)CC[C@H]6[C@H](C)CC[C@@H]([C@H]3C)[C@@]46OO5)cc2)O[C@@H]2O[C@@]3(C)CC[C@H]4[C@H](C)CC[C@@H]1[C@@]24OO3 [Dimer 21] | – | 0.0759 | 0.0407 | 28.2 | 95.5 | 60.3 | 14.5 | 0.0105 | 85.1 | 72.4 | 15.1 | 45700 | 28.2 | 49 | 12 | 0.692 | 14.8 | 0.0105 | 25.1 | 27.5 | GI50 [3, 28]: 0.0468 µM; IC (TGI) [4, 27]: 17.8 µM; GI50 [5, 28]: 0.0724 µM; IC (TGI) [5, 27]: 27.5 µM; IC (TGI) [19, 27]: 28.2 µM; GI50 [24, 28]: 263 µM; CC50 [24, 26]: 52.5 µM; IC (TGI) [7, 27]: 12.3 µM; CC50 [21, 26]: 79.4 µM; IC (TGI) [21, 27]: 14.1 µM; antiproliferative activity compared with calcitriol [25]: at least as antiproliferative as calcitrol; IC50 compared with artemisinin ([9]; in words): lower than that of artemisinin; IC (TGI) ([23]; CAKI-1, read-out: Log10 TGI): 0.0891 µM
